Reference: patent US6342225B1, “Pharmaceutical active conjugates” (Deutshces Wollforschungsinstitut, priority 1993, dated 2002)

Legend:
[1] = system: hepatic glucose output and peripheral uptake; conditions: British Diabetic Association conference 1989; cited from earlier work
[2] = system: glucose production (Ra) and glucose disposal (Rd); assay: glucose turnover during infusion with D-3H-3-glucose in anaesthetized beagles, euglycaemia maintained; assay type: in vivo; conditions: mean±SEM
Protocol: Euglycaemia and glucose specific activity were maintained by variable infusion of D-glucose with D-^3H-3-glucose.
In each experiment insulin-like activity for Ra and Rd was calculated as the area between the basal values of each of these variables and subsequent values plotted graphically against time (AUC).

[3] = target: T1, thyroxine binding globulin (TBG) (Homo sapiens, UniProt P05543); assay: optical biosensor IAsys kinetic binding to immobilized TBG; conditions: control, 500 μg/ml
T1 sequence (P05543 21-415): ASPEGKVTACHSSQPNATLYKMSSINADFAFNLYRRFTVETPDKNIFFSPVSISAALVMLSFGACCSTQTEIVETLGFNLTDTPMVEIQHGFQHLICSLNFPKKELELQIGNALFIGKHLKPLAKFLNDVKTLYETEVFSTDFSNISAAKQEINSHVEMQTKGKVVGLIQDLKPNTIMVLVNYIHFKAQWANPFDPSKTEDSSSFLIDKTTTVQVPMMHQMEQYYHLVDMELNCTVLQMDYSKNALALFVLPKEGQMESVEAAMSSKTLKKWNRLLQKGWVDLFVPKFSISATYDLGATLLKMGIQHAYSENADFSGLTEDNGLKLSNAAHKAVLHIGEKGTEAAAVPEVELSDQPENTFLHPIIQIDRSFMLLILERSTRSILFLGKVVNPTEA
Protocol: The optical bio-sensor IAsys makes it possible to record biomolecular interactions in real time and thus kinetical studies.
The surface of the cuvette is covered with a carboxymethylated dextran matrix (CMD), to which the plasma protein TBG is immobilized.
Immobilization of TBG to the carboxymethylated matrix is detected via the change of the resonance angle.
For the kinetical studies the Thyroid-Insulin conjugate was injected into the microcuvette in dilution series of 200, 300, 400 and 500 μg/ml in HBS/Tween-buffer at 25° C. To test for reproducibility, all measurements were repeated 3 times.
As a control, native insulin was injected at high concentration (500 μg/ml). […] For further measurements the surface of the microcuvette was rinsed several times with buffer.
Determination of “on-rate” constants kon at various ligand concentrations CL allow kon to be plotted against CL according to equation (4). This gives the association rate constant kA from the slope and the dissociation rate constant kD at C2=O. It has, however, to be taken into account that the error of kD becomes too large when kD<0,01 s^−1 (IAsys, METHODS GUIDE).

proinsulin: the zymogen which is cleaved to form the active hormone insulin
hepatoselectivity (effect on hepatic glucose output versus peripheral uptake and utilisation) [1]: shows this hepatoslectivity to a smaller degree

insulin
AUC for Ra (glucose production), area between basal and subsequent values against time [2]: -431 ± 121 mg/kg
AUC for Rd (glucose disposal), area between basal and subsequent values against time [2]: 1142 ± 160 mg/kg

native insulin: native insulin injected at 500 μg/ml as control in the biosensor study
association to immobilized TBG [3]: association cannot be observed
